In patent publication US20240246995A1, “PYRIMIDINONE DERIVATIVE AND PREPARATION METHOD THEREFOR, PHARMACEUTICAL COMPOSITION, AND USE” (SHANGHAI SIMR BIOTECHNOLOGY CO., LTD., priority 2021, published 2024):

Biological target: T1, Lipoprotein-Related Phospholipase A2 (Lp-PLA2) in Human Plasma (Homo sapiens, UniProt Q13093)
T1 construct: 40 μL of equally-divided and thawed mixed human plasma is pre-added; from tissue; host or cells: mixed (pooled) human plasma
T1 sequence (Q13093 22-441): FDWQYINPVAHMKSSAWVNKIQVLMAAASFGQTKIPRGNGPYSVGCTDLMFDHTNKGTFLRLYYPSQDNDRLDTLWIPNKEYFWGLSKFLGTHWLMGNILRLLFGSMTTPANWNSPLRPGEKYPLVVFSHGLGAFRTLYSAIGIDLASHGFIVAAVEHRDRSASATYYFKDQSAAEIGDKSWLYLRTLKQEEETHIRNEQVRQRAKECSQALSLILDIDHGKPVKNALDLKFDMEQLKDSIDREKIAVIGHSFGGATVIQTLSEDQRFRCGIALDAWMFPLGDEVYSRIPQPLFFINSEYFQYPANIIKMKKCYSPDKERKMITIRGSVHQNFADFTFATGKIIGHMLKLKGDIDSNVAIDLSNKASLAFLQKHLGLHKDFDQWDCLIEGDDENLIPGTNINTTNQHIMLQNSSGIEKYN
Assay: Determination of Lp-PLA2 in human plasma (Thio-PAF assay)
Format: biochemical
Conditions: mixed human plasma, 2-thio-PAF substrate, 30 minutes pre-incubation at room temperature
Excerpt: Determination of Lipoprotein-Related Phospholipase A2 (Lp-PLA2) in Human Plasma.
Human plasma determination utilizes a thioester analogue of phosphatidylcholine (PAF), where hydrolysis leads to the formation of phospholipids containing free thiol groups. The amount of the thiol groups is continuously determined by reacting with CPM (7-diethylamino-3-(4′-maleimidophenyl)-4-methylcoumarin), which is maleimide with increased fluorescence after Michael addition of the thiol groups. This determination can detect the activity of Lp-PLA2 in human plasma, for example, determined by the specific inhibition of the Lp-PLA2 inhibitors.
Thio-PAF determination, as quenched 75 μL determination, is carried out. A compound source plate is prepared by preparing a 1:3 (volume) series of diluents of each compound in pure DMSO on a 96-well microplate. A Rainin multi-channel pipette is used to transfer 3 μL of a compound on the compound source plate into a 96-well microplate where 57 μL of a determination buffer is pre-added, and the compound on the source plate is diluted by 20 folds. The above determination buffer contains 50 mM HEPES (pH 7.4), 150 mM NaCl, and 1 mM CHAPS. A Rainin multi-channel pipette is used to transfer 1 μL of the compound subjected to 20-fold dilution into a 96-well Greiner 655076 (black) microplate where 40 μL of equally-divided and thawed mixed human plasma is pre-added. The plate is oscillated for 20 seconds in an Elisa plate oscillator to be mixed evenly. After 30 minutes of pre-incubation at the room temperature, a Rainin multi-channel pipette is used to add 10 μL of a substrate solution to a 96-well Greiner 655076 (black) microplate, and the substrate solution contains 2.5 mM 2-thio-PAF [from ethanol mother liquor], 32 μM CPM [from DMSO mother liquor] and 3.2 mM NEM (N-ethylmaleimide) [newly prepared in DMSO for each experiment] in a determination buffer composed of 50 mM HEPES (pH 7.4), 150 mM NaCl, and 1 mM CHAPS. After 2 minutes, 25 μL of a 5% trifluoroacetic acid (TFA) aqueous solution is used for quenching the reaction. The plate is centrifuged at 2000 rpm for 1 minute. A Biotek Synergy H1 (H1MF) Elisa reader is used to read the plate at ex:380/em:485. GraphPad Prism 6.0 and Excel are used for IC50 data, curve, and QC analysis.

Structure (SMILES) | IC50 [nM]
Cc1cc(Oc2c(F)cc(COc3cc4n(c(=O)n3)CC[C@]35CO[C@H](CN43)C5)cc2F)ccn1 [Example 4] | 11.2
N#Cc1cc(COc2cc3n(c(=O)n2)CC[C@]24CO[C@H](CN32)C4)ccc1F [Example 10] | 10.8
O=c1nc(OCCc2ccc(Oc3ccc(Cl)c(C(F)(F)F)c3)cc2)cc2n1CC[C@]13CO[C@H](CN21)C3 [Example 11, (7aS, 10S)-2-(4-(4-chloro-3-(trifluoro-methyl)phenoxy)phenylethoxy)-6,7, 10,11-tetrahydro-4H,8H-7a,10-methanopyrimido [6′,1′:2,3]pyrimido [6,1-c][1,4]oxazin-4-one] | 8.9
Cc1cc(Oc2c(F)cc(COc3cc4n(c(=O)n3)CCC35CC(CN43)C5)cc2F)ccn1 [Example 15, 2-((3,5-difluoro-4-((2-methylpyrid-4-yl)oxy)benzyl)oxy)-6,7,9,10-tetra-hydro-4H,8H-7a,9-methanopyrimido [1,6-a]pyrrolo[1,2-c]pyrimidine-4-one] | 27.6
N#Cc1cc(COc2cc3n(c(=O)n2)CCC24CC(CN32)C4)ccc1Oc1cccc(C(F)(F)F)c1 [Example 16] | 9.2
O=c1nc(OCc2cc(F)c(Oc3ccnc(Cl)c3)c(F)c2)cc2n1CCC13CC(CN21)C3 [Example 17] | 21.5
O=c1nc(OCc2cc(F)c(Oc3ccnc(OC(F)(F)F)c3)c(F)c2)cc2n1CCC13CC(CN21)C3 [Example 18] | 11
O=c1nc(OCc2ccc(Oc3ccnc(C(F)F)c3)c(F)c2)cc2n1CCC13CC(CN21)C3 [Example 19] | 37
O=c1nc(OCc2cc(F)c(Oc3cnc(C(F)(F)F)nc3)c(F)c2)cc2n1CCC13CC(CN21)C3 [Example 20, 2-((3,5-difluoro-4-((2-(trifluoromethyl)pyrimidin-5-yl)oxy)benzyl)oxy)-6,7,9,10-tetrahydro-4H,8H-7a,9-methano-pyrimido[1,6-a] pyrrolo[1,2-c] pyrimidine-4-one] | 37.5
N#Cc1cc(COc2cc3n(c(=O)n2)CCC24CC(CN32)C4)ccc1F [Example 21] | 24.2
O=c1nc(OCCc2ccc(Oc3ccc(Cl)c(C(F)(F)F)c3)cc2)cc2n1CCC13CC(CN21)C3 [Example 22, 2-(4-(4-chloro-3-(trifluoromethyl)phenoxy)phenyl-ethoxy)-6,7,9,10-tetrahydro-4H,8H-7a,9-methano-pyrimido [1,6-a]pyrrolo[1,2-c] pyrimidine-4-one] | 120
O=c1nc(OCCc2ccc(Oc3ccc(Cl)c(C(F)(F)F)c3)cc2)cc2n1CC[C@@]13CO[C@@H](CN21)C3 [Example 28, (7aR,10R)-2-(4-(4-chloro-3-(trifluoro-methyl)phenoxy)phenylethoxy)-6,7, 10,11-tetrahydro-4H,8H-7a,10-methanopyrimido [6′,1′:2,3] pyrimido[6,1-c] [1,4]oxazin-4-one] | 13.3
O=c1nc(OCc2cc(F)c(Oc3ccnc(C(F)(F)F)c3)c(F)c2)cc2n1CCC1CCCN21 (stereo not shown) [Example 29, 2-((3,5-difluoro-4-((2-(trifluoromethyl)pyrid-4-yl)oxy)benzyl)oxy)-6,7,7a,8,9,10-hexahy-dro-4H-pyrimidinyl [1,6-a]pyrrolo [1,2-c]pyrimidine-4-one] | 54.1
O=c1nc(OCc2cc(F)c(Oc3cnc(C(F)(F)F)nc3)c(F)c2)cc2n1CCC1CCCN21 (stereo not shown) [Example 31] | 97.1
N#Cc1cc(COc2cc3n(c(=O)n2)CCC2CCCN32)ccc1Oc1cccc(C(F)(F)F)c1 (stereo not shown) [Example 32] | 45.7
O=c1nc(OCc2cc(F)c(Oc3ccc(Cl)c(C(F)(F)F)c3)c(F)c2)cc2n1CCC1CCCN21 (stereo not shown) [Example 33, 2-((4-(4-chloro-3-(trifluoromethyl)phenoxy)-3,5-di-fluorobenzyl)oxy)-6,7,7a,8,9,10-hexahydro-4H-pyrimidinyl [1,6-a]pyrrolo [1,2-c]pyrimidine-4-one] | 24.7
CC12CCCN1c1cc(OCc3ccc(Oc4ccnc(C(F)(F)F)c4)c(F)c3)nc(=O)n1CC2 (stereo not shown) [Example 34, 2-((3-fluoro-4-((2-(trifluoromethyl)pyrid-4-yl)oxy)benzyl)oxy)-7a-methyl-6,7,7a,8,9,10-hexahydro-4H-pyri-midinyl[1,6-a] pyrrolo[1,2-c] pyrimidine-4-one] | 9.9
Cc1cc(Oc2c(F)cc(COc3cc4n(c(=O)n3)CCC3(C)CCCN43)cc2F)ccn1 (stereo not shown) [Example 35, 2-((3,5-fluoro-4-((2-methylpyrid-4-yl)oxy)benzyl)oxy)-7a-methyl-6,7,7a, 8,9,10-hexahydro-4H-pyrimidinyl [1,6-a]pyrrolo[1,2-c] pyrimidine-4-one] | 23.2
CC12CCCN1c1cc(OCc3cc(F)c(Oc4ccnc(Cl)c4)c(F)c3)nc(=O)n1CC2 (stereo not shown) [Example 36] | 17.4
CC12CCCN1c1cc(OCc3ccc(F)c(C#N)c3)nc(=O)n1CC2 (stereo not shown) [Example 37] | 34

Continued by falling IC50, values first:

IC50 [nM] | Structure (SMILES)
8.8 | O=c1nc(OCc2cc(F)c(Oc3ccc(Cl)c(C(F)(F)F)c3)c(F)c2)cc2n1CCC13CC(CN21)C3 [Example 14, 2-((4-(4-chloro-3-(trifluoromethyl)phenoxy)-3,5-di-fluorobenzyl)oxy)-6,7,9,10-tetrahydro-4H,8H-7a,9-methanopyrimido [1,6-a]pyrrolo[1,2-c] pyrimidine-4-one]
8.3 | O=c1nc(OCc2cc(F)c(Oc3ccnc(C(F)(F)F)c3)c(F)c2)cc2n1CCC13CC(CN21)C3 [Example 12, 2-((3,5-difluoro-4-((2-(trifluoromethyl)pyrid-4-yl)oxy)benzyl)oxy)-6,7,9,10-tetrahydro-4H, 8H-7a,9-methano-pyrimido[1,6-a] pyrrolo[1,2-c]pyri-midine-4-one]
8.3 | O=c1nc(OCc2ccc(Oc3ccnc(C(F)(F)F)c3)c(F)c2)cc2n1CCC13CC(CN21)C3 [Example 13, 2-((3-fluoro-4-((2-(trifluoromethyl)pyrid-4-yl)oxy)benzyl)oxy)-6,7,9,10-tetrahydro-4H,8H-7a,9-methanopyri-mido[1,6-a]pyrrolo [1,2-c]pyrimidine-4-one]
8.1 | O=c1nc(OCc2ccc(Oc3ccnc(C(F)F)c3)c(F)c2)cc2n1CC[C@]13CO[C@H](CN21)C3 [Example 8]
7.7 | O=c1nc(OCc2cc(F)c(Oc3ccnc(C(F)(F)F)c3)c(F)c2)cc2n1CC[C@]13CO[C@H](CN21)C3 [Example 3]
6.6 | O=c1nc(OCc2cc(F)c(Oc3ccnc(OC(F)(F)F)c3)c(F)c2)cc2n1CC[C@@]13CO[C@@H](CN21)C3 [Example 26]
6.5 | N#Cc1cc(COc2cc3n(c(=O)n2)CC[C@@]24CO[C@@H](CN32)C4)ccc1Oc1cccc(C(F)(F)F)c1 [Example 25]
6.3 | O=c1nc(OCc2cc(F)c(Oc3cnc(C(F)(F)F)nc3)c(F)c2)cc2n1CC[C@]13CO[C@H](CN21)C3 [Example 9]
5 | O=c1nc(OCc2ccc(Oc3ccnc(C(F)(F)F)c3)c(F)c2)cc2n1CC[C@]13CO[C@H](CN21)C3 [Example 1, (7aS,10S)-2-((3-fluoro-4-((2-(trifluoromethyl)pyrid-4-yl)oxy)benzyl)oxy)-6,7,10,11-tetra hydro-4H,8H-7a,10-methanopyrimido[6′,1′:2,3]pyrimido[6,1-c][1,4]oxazin-4-one]
5 | O=c1nc(OCc2cc(F)c(Oc3ccnc(Cl)c3)c(F)c2)cc2n1CC[C@]13CO[C@H](CN21)C3 [Example 6]
4.9 | O=c1nc(OCc2cc(F)c(Oc3ccnc(C(F)(F)F)c3)c(F)c2)cc2n1CC[C@@]13CO[C@@H](CN21)C3 [Example 23]
4.6 | O=c1nc(OCc2cc(F)c(Oc3cnc(C(F)(F)F)nc3)c(F)c2)cc2n1CC[C@@]13CO[C@@H](CN21)C3 [Example 27]
4.5 | N#Cc1cc(COc2cc3n(c(=O)n2)CC[C@]24CO[C@H](CN32)C4)ccc1Oc1cccc(C(F)(F)F)c1 [Example 5]
3.6 | O=c1nc(OCc2cc(F)c(Oc3ccnc(OC(F)(F)F)c3)c(F)c2)cc2n1CC[C@]13CO[C@H](CN21)C3 [Example 7]
